ChEMBL document CHEMBL3822374, “Anti-inflammatory polyphenol constituents derived from Cissus pteroclada Hayata” (Bioorg Med Chem Lett, 2016)

Key:
RAW264.7 [1] = experiment: Antiinflammatory activity against LPS-stimulated mouse RAW264.7 cells assessed as TNFalpha levels by ELISA (reference value: 183.21 +/- 5.36 pg/mL); type: functional
RAW264.7 [2] = experiment: Antiinflammatory activity against LPS-stimulated mouse RAW264.7 cells assessed as IL1beta levels by ELISA (reference value: 8.70 +/- 0.365 pg/mL); type: functional
RAW264.7 [3] = experiment: Antiinflammatory activity against LPS-stimulated mouse RAW264.7 cells assessed as PGE2 levels by ELISA (reference value: 33.2 +/- 2.33 pg/mL); type: functional
RAW264.7 [4] = experiment: Antiinflammatory activity against LPS-stimulated mouse RAW264.7 cells assessed as NO levels by ELISA (reference value: 0.95 +/- 0.052 umol/mL); type: functional
RAW264.7 [5] = experiment: Antiinflammatory activity against LPS-stimulated mouse RAW264.7 cells assessed as iNOS levels by ELISA (reference value: 31.63 +/- 3.26 U/mL); type: functional
[6] = Inhibition of NFkappaB signaling pathway in LPS-stimulated mouse RAW264.7 cells assessed as protein levels by ELISA (reference value: 1.23 +/- 0.06 pg/mL); type: cell-based
RAW264.7 [7] = experiment: Antiinflammatory activity against LPS-stimulated mouse RAW264.7 cells assessed as COX2 levels by ELISA (reference value: 159.64 +/- 13.56 pg/mL); type: functional
RAW264.7 [8] = experiment: Cytotoxicity against mouse RAW264.7 cells assessed as reduction in cell viability at 50 umol/L after 24 hrs by MTT assay; type: cell-based; settings: raw264.7, 24 h, 50 µM
RAW264.7 [9] = experiment: Cytotoxicity against LPS-stimulated mouse RAW264.7 cells assessed as reduction in cell viability at 50 umol/L after 24 hrs by MTT assay; type: cell-based; settings: raw264.7, 24 h, 50 µM
RAW264.7 [10] = experiment: Antiinflammatory activity against LPS-stimulated mouse RAW264.7 cells assessed as TNFalpha levels at 5 umol/L by ELISA (reference value: 183.21 +/- 5.36 pg/mL); type: functional
RAW264.7 [11] = experiment: Antiinflammatory activity against LPS-stimulated mouse RAW264.7 cells assessed as TNFalpha levels at 25 umol/L by ELISA (reference value: 183.21 +/- 5.36 pg/mL); type: functional
RAW264.7 [12] = experiment: Antiinflammatory activity against LPS-stimulated mouse RAW264.7 cells assessed as TNFalpha levels at 50 umol/L by ELISA (reference value: 183.21 +/- 5.36 pg/mL); type: functional
RAW264.7 [13] = experiment: Antiinflammatory activity against LPS-stimulated mouse RAW264.7 cells assessed as IL1beta levels at 5 umol/L by ELISA (reference value: 8.70 +/- 0.365 pg/mL); type: functional
RAW264.7 [14] = experiment: Antiinflammatory activity against LPS-stimulated mouse RAW264.7 cells assessed as IL1beta levels at 25 umol/L by ELISA (reference value: 8.70 +/- 0.365 pg/mL); type: functional
RAW264.7 [15] = experiment: Antiinflammatory activity against LPS-stimulated mouse RAW264.7 cells assessed as IL1beta levels at 50 umol/L by ELISA (reference value: 8.70 +/- 0.365 pg/mL); type: functional
RAW264.7 [16] = experiment: Antiinflammatory activity against LPS-stimulated mouse RAW264.7 cells assessed as PGE2 levels at 5 umol/L by ELISA (reference value: 33.2 +/- 2.33 pg/mL); type: functional
RAW264.7 [17] = experiment: Antiinflammatory activity against LPS-stimulated mouse RAW264.7 cells assessed as PGE2 levels at 25 umol/L by ELISA (reference value: 33.2 +/- 2.33 pg/mL); type: functional
RAW264.7 [18] = experiment: Antiinflammatory activity against LPS-stimulated mouse RAW264.7 cells assessed as PGE2 levels at 50 umol/L by ELISA (reference value: 33.2 +/- 2.33 pg/mL); type: functional
RAW264.7 [19] = experiment: Antiinflammatory activity against LPS-stimulated mouse RAW264.7 cells assessed as NO levels at 5 umol/L by ELISA (reference value: 0.95 +/- 0.052 umol/mL); type: functional
RAW264.7 [20] = experiment: Antiinflammatory activity against LPS-stimulated mouse RAW264.7 cells assessed as NO levels at 25 umol/L by ELISA (reference value: 0.95 +/- 0.052 umol/mL); type: functional
RAW264.7 [21] = experiment: Antiinflammatory activity against LPS-stimulated mouse RAW264.7 cells assessed as NO levels at 50 umol/L by ELISA (reference value: 0.95 +/- 0.052 umol/mL); type: functional
RAW264.7 [22] = experiment: Antiinflammatory activity against LPS-stimulated mouse RAW264.7 cells assessed as iNOS levels at 5 umol/L by ELISA (reference value: 31.63 +/- 3.26 U/mL); type: functional
RAW264.7 [23] = experiment: Antiinflammatory activity against LPS-stimulated mouse RAW264.7 cells assessed as iNOS levels at 25 umol/L by ELISA (reference value: 31.63 +/- 3.26 U/mL); type: functional
RAW264.7 [24] = experiment: Antiinflammatory activity against LPS-stimulated mouse RAW264.7 cells assessed as iNOS levels at 50 umol/L by ELISA (reference value: 31.63 +/- 3.26 U/mL); type: functional
[25] = Inhibition of NFkappaB signaling pathway in LPS-stimulated mouse RAW264.7 cells assessed as protein levels at 5 umol/L by ELISA (reference value: 1.23 +/- 0.06 pg/mL); type: cell-based
[26] = Inhibition of NFkappaB signaling pathway in LPS-stimulated mouse RAW264.7 cells assessed as protein levels at 25 umol/L by ELISA (reference value: 1.23 +/- 0.06 pg/mL); type: cell-based
[27] = Inhibition of NFkappaB signaling pathway in LPS-stimulated mouse RAW264.7 cells assessed as protein levels at 50umol/L by ELISA (reference value: 1.23 +/- 0.06 pg/mL); type: cell-based
RAW264.7 [28] = experiment: Antiinflammatory activity against LPS-stimulated mouse RAW264.7 cells assessed as COX2 levels at 5 umol/L by ELISA (reference value: 159.64 +/- 13.56 pg/mL); type: functional
RAW264.7 [29] = experiment: Antiinflammatory activity against LPS-stimulated mouse RAW264.7 cells assessed as COX2 levels at 25 umol/L by ELISA (reference value: 159.64 +/- 13.56 pg/mL); type: functional
RAW264.7 [30] = experiment: Antiinflammatory activity against LPS-stimulated mouse RAW264.7 cells assessed as COX2 levels at 50 umol/L by ELISA (reference value: 159.64 +/- 13.56 pg/mL); type: functional
RAW264.7 [31] = experiment: Antiinflammatory activity against LPS-stimulated mouse RAW264.7 cells assessed as downregulation of iNOS levels by ELISA; type: functional, cell-based
[32] = Inhibition of NFkappaB signaling pathway in LPS-stimulated mouse RAW264.7 cells by ELISA; type: cell-based
RAW264.7 [33] = experiment: Antiinflammatory activity against LPS-stimulated mouse RAW264.7 cells assessed as downregulation of COX2 levels by ELISA; type: functional, cell-based
RAW264.7 [34] = experiment: Antiinflammatory activity against LPS-stimulated mouse RAW264.7 cells assessed as downregulation of NO levels by ELISA; type: functional, cell-based
RAW264.7 [35] = experiment: Antiinflammatory activity against LPS-stimulated mouse RAW264.7 cells assessed as downregulation of PGE2 levels by ELISA; type: functional, cell-based

SMILES	Activity (RAW264.7 [8])	Activity (RAW264.7 [9])	Activity (RAW264.7 [10])	Activity (RAW264.7 [11])	Activity (RAW264.7 [12])	Activity (RAW264.7 [13])	Activity (RAW264.7 [14])	Activity (RAW264.7 [15])	Activity (RAW264.7 [16])	Activity (RAW264.7 [17])	Activity (RAW264.7 [18])	Activity (RAW264.7 [19])	Activity (RAW264.7 [20])	Activity (RAW264.7 [21])	Activity (RAW264.7 [22])	Activity (RAW264.7 [23])	Activity (RAW264.7 [24])	Activity [25]	Activity [26]	Activity [27]	also measured
COc1ccc2c(c1)c(CC(=O)O)c(C)n2C(=O)c1ccc(Cl)cc1 [INDOMETHACIN]																					Activity (RAW264.7 [1]): 58.55 pg/mL; Activity (RAW264.7 [2]): 3.15 pg/mL; Activity (RAW264.7 [3]): 19.67 pg/mL; Activity (RAW264.7 [4]): 0.17 µmol/mL; Activity (RAW264.7 [5]): 17.38 U/ml; Activity [6]: 0.39 pg/mL; Activity (RAW264.7 [7]): 71.47 pg/mL
Oc1ccc(/C=C/c2cc(O)cc(O)c2)cc1 [RESVERATROL]	Non-toxic	Non-toxic	109.42 pg/mL	96.47 pg/mL	74.91 pg/mL	5.26 pg/mL	4.76 pg/mL	2.98 pg/mL	31.43 pg/mL	29.15 pg/mL	28.81 pg/mL	0.38 µmol/mL	0.082 µmol/mL	0.053 µmol/mL	29.22 U/ml	25.88 U/ml	19.26 U/ml	0.57 pg/mL	0.25 pg/mL	0.15 pg/mL	Activity (RAW264.7 [28]): 121.49 pg/mL; Activity (RAW264.7 [29]): 104.11 pg/mL; Activity (RAW264.7 [30]): 83.48 pg/mL
COc1c(O)cc2c(c1O)[C@@H]1O[C@H](CO[C@H]3O[C@H](CO)[C@H](O)[C@H](O)[C@H]3O)[C@@H](O)[C@H](O)[C@H]1OC2=O	Non-toxic	Non-toxic																			Activity (RAW264.7 [31]): Dose-dependent effect; inhibition [32]: Dose-dependent effect; Activity (RAW264.7 [33]): Dose-dependent effect; Activity (RAW264.7 [34]): Dose-dependent effect; Activity (RAW264.7 [35]): Dose-dependent effect
O=c1c(O)c(-c2cc(O)c(O)c(O)c2)oc2cc(O)cc(O)c12 [MYRICETIN]	Non-toxic	Non-toxic	36.23 pg/mL	35.59 pg/mL	35.44 pg/mL	3.44 pg/mL	0.91 pg/mL	0.89 pg/mL	27.23 pg/mL	23.36 pg/mL	23.33 pg/mL	0.42 µmol/mL	0.24 µmol/mL	0.12 µmol/mL	24.26 U/ml	21.38 U/ml	17.44 U/ml	0.453 pg/mL	0.443 pg/mL	0.34 pg/mL	Activity (RAW264.7 [28]): 174.99 pg/mL; Activity (RAW264.7 [29]): 142.13 pg/mL; Activity (RAW264.7 [30]): 118.25 pg/mL
